The values below come from ChEMBL document CHEMBL4118211, “Isoxazole-tethered diarylheptanoid analogs: Discovery of a new drug-like PAR2 antagonist” (Bioorg Med Chem Lett, 2018).

≈ marks a conversion by molar mass, not a printed value.

Data set [1] deals with Amyloid-beta precursor protein (Homo sapiens, UniProt P05067). Description: Displacement of [125I]IMPY from fibrillar amyloid beta 42 (unknown origin) after 3 hrs.
The nature of data set [2]: Metabolic stability in human liver microsomes assessed as parent compound remaining at 1 uM preincubated for 5 mins followed by NADPH addition measured after 30 mins by LC-MS/MS analysis. Format: ADME, microsome. To be noted: read-out: Stability.
Data set [3] can be described thus: Kinetic solubility of the compound in phosphate buffer at pH 7.4 at 0.0098 to 10 mM by turbidometric method. The class given is physicochemical. The settings on record: read-out: Kinetic_solubility.
Another data set has as its system HepG2. Description: Cytotoxicity against human HepG2 cells assessed as reduction in cell viability after 24 hrs by MTT assay. The class given is cell-based. The settings on record: HepG2, 24 h.
In data set [4] the target is Proteinase-activated receptor 2 (Homo sapiens) (UniProt P55085). Description: Antagonist activity at PAR2 in human HEK293 cells assessed as inhibition of trypsin-induced intracellular calcium flux at 10 uM pretreated for 15 mins followed by trypsin addition by Fluo-8 dye based fluorescence assay relative to control. Format: functional, cell-based.
Data set [5] can be described thus: Permeability from basolateral to apical side in human Caco2 cells at 5 uM after 90 mins. Format: ADME, cell-based. The settings on record: Caco-2, read-out: permeability.
Data set [6] is described as follows: Permeability from apical to basolateral side in human Caco2 cells at 5 uM after 90 mins. The class given is ADME, cell-based. The settings on record: Caco-2, read-out: permeability.
Data set [7] deals with Proteinase-activated receptor 2 (Homo sapiens) (UniProt P55085). Description: Antagonist activity at PAR2 in human HEK293 cells assessed as trypsin-induced intracellular calcium flux at 1 uM pretreated for 15 mins followed by trypsin addition by Fluo-8 dye based fluorescence assay relative to control. More on the design: scale not given: the % may be the effect or the level left. Format: functional, cell-based.

For data set [8] the target is unchanged. Description: Antagonist activity at PAR2 in human HEK293 cells assessed as trypsin-induced intracellular calcium flux at 3 uM pretreated for 15 mins followed by trypsin addition by Fluo-8 dye based fluorescence assay relative to control. The class given is functional, cell-based. More on the design: scale not given: the % may be the effect or the level left.

For data set [9] the target is unchanged. Description: Antagonist activity at PAR2 in human HEK293 cells assessed as trypsin-induced intracellular calcium flux at 10 uM pretreated for 15 mins followed by trypsin addition by Fluo-8 dye based fluorescence assay relative to control. The class given is functional, cell-based. More on the design: scale not given: the % may be the effect or the level left.

The target is the same in data set [10]. Kind of data set: Antagonist activity at PAR2 in human HEK293 cells assessed as inhibition of trypsin-induced intracellular calcium flux at 30 uM pretreated for 15 mins followed by trypsin addition by Fluo-8 dye based fluorescence assay relative to control. Format: functional, cell-based.
For data set [11], the target named is T1, Proteinase-activated receptor 2 (Homo sapiens, UniProt P55085).
T1 sequence (P55085 whole entry): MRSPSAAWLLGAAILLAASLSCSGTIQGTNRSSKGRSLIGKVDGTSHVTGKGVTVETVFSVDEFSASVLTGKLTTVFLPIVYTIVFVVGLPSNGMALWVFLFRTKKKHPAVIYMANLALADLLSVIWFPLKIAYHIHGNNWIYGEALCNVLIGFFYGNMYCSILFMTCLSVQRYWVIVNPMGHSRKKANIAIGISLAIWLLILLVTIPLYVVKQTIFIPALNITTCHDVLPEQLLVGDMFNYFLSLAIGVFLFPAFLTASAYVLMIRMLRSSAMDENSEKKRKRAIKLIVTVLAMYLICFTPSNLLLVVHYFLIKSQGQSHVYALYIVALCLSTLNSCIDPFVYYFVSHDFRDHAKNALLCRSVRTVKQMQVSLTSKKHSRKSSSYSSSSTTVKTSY
Description: Antagonist activity at PAR2 in human 1321N1 cells assessed as inhibition of trypsin-induced intracellular calcium flux pretreated for 60 mins followed by trypsin addition by Fluo-8 NW dye based FLIPR assay. Format: functional, cell-based.

In data set [12] the target is Proteinase-activated receptor 2 (Homo sapiens) (UniProt P55085). Kind of data set: Antagonist activity at PAR2 in human HEK293 cells assessed as trypsin-induced intracellular calcium flux at 0.1 uM pretreated for 15 mins followed by trypsin addition by Fluo-8 dye based fluorescence assay relative to control. The class given is functional, cell-based. More on the design: scale not given: the % may be the effect or the level left.

Data set [13] shares this target. Kind of data set: Antagonist activity at PAR2 in human HEK293 cells assessed as trypsin-induced intracellular calcium flux at 0.3 uM pretreated for 15 mins followed by trypsin addition by Fluo-8 dye based fluorescence assay relative to control. Format: functional, cell-based. More on the design: scale not given: the % may be the effect or the level left.
For data set [14] the target is unchanged. Description: Antagonist activity at PAR2 in human HEK293 cells assessed as trypsin-induced intracellular calcium flux at 0.01 uM pretreated for 15 mins followed by trypsin addition by Fluo-8 dye based fluorescence assay relative to control. The class given is functional, cell-based. More on the design: scale not given: the % may be the effect or the level left.

For data set [15] the target is unchanged. Kind of data set: Antagonist activity at PAR2 in human HEK293 cells assessed as trypsin-induced intracellular calcium flux at 100 uM pretreated for 15 mins followed by trypsin addition by Fluo-8 dye based fluorescence assay relative to control. The class given is functional, cell-based. More on the design: scale not given: the % may be the effect or the level left.

In data set [16] the target is T1, Proteinase-activated receptor 2. Kind of data set: Antagonist activity at PAR2 in human HEK293 cells assessed as inhibition of trypsin-induced intracellular calcium flux pretreated for 15 mins followed by trypsin addition by Fluo-8 dye based fluorescence assay. Format: functional, cell-based.

Chain of Amyloid-beta precursor protein (P05067 whole entry): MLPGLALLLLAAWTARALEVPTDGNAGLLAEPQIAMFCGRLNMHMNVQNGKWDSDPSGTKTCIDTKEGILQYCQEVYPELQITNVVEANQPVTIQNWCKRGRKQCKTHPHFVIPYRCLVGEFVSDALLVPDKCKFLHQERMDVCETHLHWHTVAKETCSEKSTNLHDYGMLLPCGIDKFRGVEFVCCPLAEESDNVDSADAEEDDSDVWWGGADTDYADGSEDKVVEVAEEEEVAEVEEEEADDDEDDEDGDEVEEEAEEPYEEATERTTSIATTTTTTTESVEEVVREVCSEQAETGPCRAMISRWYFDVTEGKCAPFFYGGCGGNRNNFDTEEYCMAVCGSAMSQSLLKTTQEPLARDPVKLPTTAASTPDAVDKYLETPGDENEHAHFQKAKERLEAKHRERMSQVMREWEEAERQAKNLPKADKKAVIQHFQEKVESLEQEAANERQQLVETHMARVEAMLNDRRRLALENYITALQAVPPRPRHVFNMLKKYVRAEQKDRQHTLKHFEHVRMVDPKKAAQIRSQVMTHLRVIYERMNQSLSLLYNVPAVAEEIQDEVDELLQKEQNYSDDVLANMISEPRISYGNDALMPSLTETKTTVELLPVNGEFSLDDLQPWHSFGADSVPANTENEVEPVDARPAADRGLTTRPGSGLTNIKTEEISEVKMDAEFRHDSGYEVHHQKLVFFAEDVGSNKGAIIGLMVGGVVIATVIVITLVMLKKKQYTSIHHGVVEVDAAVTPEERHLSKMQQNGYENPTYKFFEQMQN

`COc1cc(/C=C/c2cc(/C=C/c3ccc(O)c(OC)c3)on2)ccc1O` returned an IC50 in data set [1] of 0.138 µM.

For `COc1ccc(CC[C@H](O)C[C@H](O)c2cc(-c3ccccc3)on2)cc1`, the remaining at 0.5 h, 1 µM in [2] was found to be 33%. Besides, in data set [3], the solubility kinetic worked out at 25 µM (≈ 8.84 µg/mL). The IC50 in the data set with HepG2 is more than 100 µM.

On to `CC[C@H](C)[C@H](NC(=O)[C@H](CC1CCCCC1)NC(=O)c1ccno1)C(=O)N1CCC2(CCc3ccccc32)CC1`, for which, in [4], the inhibition stood at 42%.

Turning to `COc1cc(/C=C/C(=O)CC(=O)/C=C/c2ccc(O)c(OC)c2)ccc1O` [CURCUMIN], the Papp B→A at 1.5 h, 5 µM in data set [5] was less than 0.5 ×10⁻⁶ cm/s. Besides, in [2], the remaining at 0.5 h, 1 µM was found to be 21%. Also, the Papp A→B at 1.5 h, 5 µM in data set [6] was less than 0.5 ×10⁻⁶ cm/s. For the same molecule, the solubility kinetic in [3] stood at 3 µM (≈ 1.11 µg/mL). Also, in the data set on HepG2, the IC50 was found to be 10 µM.

In the case of `O[C@@H](CCc1ccc(F)cc1)C[C@@H](O)c1cc(-c2ccccc2)on1`, the Papp B→A at 1.5 h, 5 µM in data set [5] was found to be 5 ×10⁻⁶ cm/s. Further, the Activity in [7] is 100%; in data set [8], 100%; in data set [9], 65 to 70%. In [2], the remaining at 0.5 h, 1 µM was 73%. Further, the Papp A→B at 1.5 h, 5 µM in data set [6] amounted to 6.3 ×10⁻⁶ cm/s. Besides, the solubility kinetic in data set [3] worked out at 25 µM (≈ 8.53 µg/mL). Also, the half-maximal inhibitory concentration (IC50) in the data set with HepG2 is more than 100 µM. For the same molecule, the inhibition in data set [10] is 70%.

In the case of `COc1cccc(CC[C@H](O)C[C@@H](O)c2cc(-c3ccccc3)on2)c1`, in data set [2], the remaining at 0.5 h, 1 µM is less than 20%. The solubility kinetic in data set [3] stood at 25 µM (≈ 8.84 µg/mL). Moreover, in the data set with HepG2, the IC50 is more than 100 µM.

As for `COc1ccc(-c2cc([C@@H](O)C[C@@H](O)CCc3ccc(Cl)cc3)no2)cc1`, in data set [2], the remaining at 0.5 h, 1 µM was less than 20%. Besides, the solubility kinetic in [3] came out at 12 µM (≈ 4.65 µg/mL). The half-maximal inhibitory concentration (IC50) in the data set on HepG2 was more than 100 µM.

With `C[C@@H](C1CCCCC1)n1c(-c2cc3c(cc2Br)OCO3)nc2cc(C(=O)Nc3ccc(C#N)cc3)ccc21`, the IC50 in [11] came to 6.6 µM.

With `COc1ccc(CC[C@H](O)C[C@H](O)c2cc(-c3ccc(OC)cc3)on2)cc1`, the remaining at 0.5 h, 1 µM in data set [2] was less than 20%. Besides, the solubility kinetic in [3] worked out at 12 µM (≈ 4.6 µg/mL). Further, in the data set with HepG2, the IC50 was more than 100 µM.

Regarding `COc1ccc(CC[C@H](O)C[C@@H](O)c2cc(-c3ccccc3)on2)cc1`, in data set [2], the remaining at 0.5 h, 1 µM was found to be 32%. Further, the solubility kinetic in data set [3] is 25 µM (≈ 8.84 µg/mL). Moreover, the IC50 in the data set with HepG2 is more than 100 µM.

`O[C@@H](CCc1ccc(F)cc1)C[C@H](O)c1cc(-c2ccccc2)on1`: the Papp B→A at 1.5 h, 5 µM in [5] worked out at 5.8 ×10⁻⁶ cm/s. For the same molecule, the Activity in data set [12] was 90 to 95%; in data set [7] it was 74 to 78%; in [13], 80 to 85%; in [14] it was 95 to 100%; in data set [8] it was 60 to 65%; in data set [9], 43 to 48%. Moreover, the Activity in data set [15] is 15 to 20%. In data set [2], the remaining at 0.5 h, 1 µM was found to be 84%. In data set [6], the Papp A→B at 1.5 h, 5 µM was 7.4 ×10⁻⁶ cm/s. In addition, the IC50 in data set [16] is 6 µM; in the data set on HepG2, more than 100 µM. Further, the solubility kinetic in data set [3] turned out to be 25 µM (≈ 8.53 µg/mL). Also, the inhibition in [10] is 80%.

Regarding `CCCc1cc(F)ccc1[C@H](O)c1ncc[nH]1`, in data set [11], the half-maximal inhibitory concentration (IC50) worked out at 4.2 µM.
